Experimental data as given in patent publication US11453703B2, “Heterotandem bicyclic peptide complexes” (BicycleTX Limited, priority 2018, dated 2022).
Starred links: 1 amine or outer side, 2 acyl side, 3 side chain; linkers in the order of their positions; H or OH if unused. Positions of bridges follow the written chain, without caps; N, C: chain ends. Non-standard residues stand in square brackets, D forms with d. Residues, ends and D or L forms follow the SMILES beside them. Chains are numbered I, II in the order given. TATA = O=C(CC[*:1])N1CN(C(=O)CC[*:2])CN(C(=O)CC[*:3])C1; X2 = O=C(CCOCCOCCOCCOCCOCCn1cc(CCC(=O)[*:2])nn1)[*:1]; Hyp = O=C(O)[C@@H]1C[C@@H](O)CN1; hArg = N=C(N)NCCCC[C@H](N)C(=O)O; tBuAla = CC(C)(C)C[C@H](N)C(=O)O; Nle = CCCC[C@H](N)C(=O)O

target: CD137 (Homo sapiens, UniProt Q07011); experiment: CD137 reporter assay, co-culture with EphA2 tumour cells; assay type: cell-based; set-up: host or cells: Jurkat reporter cells; conditions: tumour target EphA2, co-culture with PC3, 6 h
Description: Culture medium referred to as R1 media is prepared by adding 1% FBS to RPMI-1640 (component of Promega kit CS196005). Serial dilutions of test articles in R1 are prepared in a sterile 96 well-plate. Use 25 μl per well of test articles or R1 (as a background control) to designated wells in white cell culture plate. Tumour cells* are harvested and resuspended at a concentration of 400,000 cells/mL in R1 media. Twenty five (25) μL/well tumour cells are used in white cell culture plate. Jurkat cells (Promega kit CS196005, 0.5 mL) are thawed in the water bath and then added to 5 ml pre-warmed R1 medium. Twenty five (25) μL/well Jurkat cells are used in white cell culture plate. Incubate the cells and test articles for 6h at 37° C., 5% CO2. At the end of 6 h, add 75 μl/well Bio-Glo™ (Promega) and incubate for 10 min before reading luminescence in a plate reader (Clariostar, BMG). The fold change relative to cells (Jurkat cells+Cell line used in co-culture) is calculated and plotted in GraphPad Prism as log(agonist) vs response to determine EC50 (nM) and Fold Induction over background (Max)

CD137, sequence (Q07011 24-255): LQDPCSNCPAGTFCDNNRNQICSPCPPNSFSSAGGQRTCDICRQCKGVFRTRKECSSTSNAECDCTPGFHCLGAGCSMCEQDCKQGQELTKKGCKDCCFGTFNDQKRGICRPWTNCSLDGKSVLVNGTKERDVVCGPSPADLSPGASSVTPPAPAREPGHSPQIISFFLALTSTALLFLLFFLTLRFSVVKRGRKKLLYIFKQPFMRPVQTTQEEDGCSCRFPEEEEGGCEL

In order of falling EC50:
1. CCCC[C@@H]1NC(=O)[C@H](Cc2ccc(O)cc2)NC(=O)[C@@H]2CCCN2C(=O)[C@H](CC(=O)O)NC(=O)[C@H](C)NC(=O)[C@H](Cc2ccccc2)NC(=O)[C@@H]2CSCCC(=O)N3CN(CN(C3)C(=O)CCSC[C@@H](C(=O)N[C@@H](C)C(N)=O)NC1=O)C(=O)CCSC[C@H](NC(C)=O)C(=O)N[C@@H](CC(C)(C)C)C(=O)N1CCC[C@H]1C(=O)N[C@@H](CCC(=O)O)C(=O)N[C@H](CCCCNC(=O)CCc1cn(CCOCCOCCOCCOCCOCCC(=O)N[C@@H](C)C(=O)N[C@@H](CCCCNC(=N)N)C(=O)N[C@@H](CC(=O)O)C(=O)N[C@H]3CSCCC(=O)N4CN5CN(C4)C(=O)CCSC[C@H](NC(=O)[C@H](CC(C)C)NC(=O)[C@@H]4CCCN4C(=O)[C@H](CC(N)=O)NC(=O)[C@H](C(C)C)NC(=O)[C@H](CC(C)C)NC(=O)[C@@H]4C[C@@H](O)CN4C3=O)C(=O)N[C@@H](CC(C)C)C(=O)N[C@@H](Cc3c[nH]cn3)C(=O)N3CCC[C@H]3C(=O)N[C@H](CC(=O)O)C(=O)N[C@@H](Cc3c[nH]c4ccccc34)C(=O)N[C@@H](CCCCNC(=N)N)C(=O)N[C@H](C(N)=O)CSCCC5=O)nn1)C(=O)N1CCC[C@H]1C(=O)N[C@@H](Cc1ccc(O)cc1)C(=O)N2 [BCY10575] (I: A[hArg]DC[Hyp]LVNPLCLHP[dD]W[hArg]C-NH2 / II: Ac-C[tBuAla]PE[dK]PYCFADPY[Nle]CA-NH2; linker I:4-I:11-I:18, II:1-II:8-II:15 via TATA; linker I:N-II:5 via X2)  0.62 nM
2. CCCC[C@@H]1NC(=O)[C@H](Cc2ccc(O)cc2)NC(=O)[C@@H]2CCCN2C(=O)[C@H](CC(=O)O)NC(=O)[C@H](C)NC(=O)[C@H](Cc2ccccc2)NC(=O)[C@@H]2CSCCC(=O)N3CN(CN(C3)C(=O)CCSC[C@@H](C(=O)N[C@@H](CNC(=O)CCc3cn(CCOCCOCCOCCOCCOCCC(=O)N[C@@H](C)C(=O)N[C@@H](CCCCNC(=N)N)C(=O)N[C@@H](CC(=O)O)C(=O)N[C@H]4CSCCC(=O)N5CN6CN(C5)C(=O)CCSC[C@H](NC(=O)[C@H](CC(C)C)NC(=O)[C@@H]5CCCN5C(=O)[C@H](CC(N)=O)NC(=O)[C@H](C(C)C)NC(=O)[C@H](CC(C)C)NC(=O)[C@@H]5C[C@@H](O)CN5C4=O)C(=O)N[C@@H](CC(C)C)C(=O)N[C@@H](Cc4c[nH]cn4)C(=O)N4CCC[C@H]4C(=O)N[C@H](CC(=O)O)C(=O)N[C@@H](Cc4c[nH]c5ccccc45)C(=O)N[C@@H](CCCCNC(=N)N)C(=O)N[C@H](C(N)=O)CSCCC6=O)nn3)C(N)=O)NC1=O)C(=O)CCSC[C@H](NC(C)=O)C(=O)N[C@@H](CC(C)(C)C)C(=O)N1CCC[C@H]1C(=O)N[C@@H](CCC(=O)O)C(=O)N[C@H](C)C(=O)N1CCC[C@H]1C(=O)N[C@@H](Cc1ccc(O)cc1)C(=O)N2 [BCY10576]  0.51 nM
3. CCCC[C@@H]1NC(=O)[C@H](Cc2ccc(O)cc2)NC(=O)[C@@H]2CCCN2C(=O)[C@H](CC(=O)O)NC(=O)[C@H](C)NC(=O)[C@H](Cc2ccccc2)NC(=O)[C@@H]2CSCCC(=O)N3CN(CN(C3)C(=O)CCSC[C@@H](C(=O)N[C@@H](CNC(=O)Cn3cc(CCC(=O)NCCC(=O)N(C)CC(=O)N(C)CC(=O)N(C)CC(=O)N(C)CC(=O)N(C)CC(=O)N(C)CC(=O)N(C)CC(=O)N(C)CC(=O)N(C)CC(=O)N(C)CC(=O)N[C@@H](C)C(=O)N[C@@H](CCCCNC(=N)N)C(=O)N[C@@H](CC(=O)O)C(=O)N[C@H]4CSCCC(=O)N5CN6CN(C5)C(=O)CCSC[C@H](NC(=O)[C@H](CC(C)C)NC(=O)[C@@H]5CCCN5C(=O)[C@H](CC(N)=O)NC(=O)[C@H](C(C)C)NC(=O)[C@H](CC(C)C)NC(=O)[C@@H]5C[C@@H](O)CN5C4=O)C(=O)N[C@@H](CC(C)C)C(=O)N[C@@H](Cc4c[nH]cn4)C(=O)N4CCC[C@H]4C(=O)N[C@H](CC(=O)O)C(=O)N[C@@H](Cc4c[nH]c5ccccc45)C(=O)N[C@@H](CCCCNC(=N)N)C(=O)N[C@H](C(N)=O)CSCCC6=O)nn3)C(N)=O)NC1=O)C(=O)CCSC[C@H](NC(C)=O)C(=O)N[C@@H](CC(C)(C)C)C(=O)N1CCC[C@H]1C(=O)N[C@@H](CCC(=O)O)C(=O)N[C@H](C)C(=O)N1CCC[C@H]1C(=O)N[C@@H](Cc1ccc(O)cc1)C(=O)N2 [BCY10577]  0.28 nM

In order of falling “Fold Induction over Background” value:
1. CCCC[C@@H]1NC(=O)[C@H](Cc2ccc(O)cc2)NC(=O)[C@@H]2CCCN2C(=O)[C@H](CC(=O)O)NC(=O)[C@H](C)NC(=O)[C@H](Cc2ccccc2)NC(=O)[C@@H]2CSCCC(=O)N3CN(CN(C3)C(=O)CCSC[C@@H](C(=O)N[C@@H](C)C(N)=O)NC1=O)C(=O)CCSC[C@H](NC(C)=O)C(=O)N[C@@H](CC(C)(C)C)C(=O)N1CCC[C@H]1C(=O)N[C@@H](CCC(=O)O)C(=O)N[C@H](CCCCNC(=O)CCc1cn(CCOCCOCCOCCOCCOCCC(=O)N[C@@H](C)C(=O)N[C@@H](CCCCNC(=N)N)C(=O)N[C@@H](CC(=O)O)C(=O)N[C@H]3CSCCC(=O)N4CN5CN(C4)C(=O)CCSC[C@H](NC(=O)[C@H](CC(C)C)NC(=O)[C@@H]4CCCN4C(=O)[C@H](CC(N)=O)NC(=O)[C@H](C(C)C)NC(=O)[C@H](CC(C)C)NC(=O)[C@@H]4C[C@@H](O)CN4C3=O)C(=O)N[C@@H](CC(C)C)C(=O)N[C@@H](Cc3c[nH]cn3)C(=O)N3CCC[C@H]3C(=O)N[C@H](CC(=O)O)C(=O)N[C@@H](Cc3c[nH]c4ccccc34)C(=O)N[C@@H](CCCCNC(=N)N)C(=O)N[C@H](C(N)=O)CSCCC5=O)nn1)C(=O)N1CCC[C@H]1C(=O)N[C@@H](Cc1ccc(O)cc1)C(=O)N2 [BCY10575] (I: A[hArg]DC[Hyp]LVNPLCLHP[dD]W[hArg]C-NH2 / II: Ac-C[tBuAla]PE[dK]PYCFADPY[Nle]CA-NH2; linker I:4-I:11-I:18, II:1-II:8-II:15 via TATA; linker I:N-II:5 via X2)  38 fold
2. CCCC[C@@H]1NC(=O)[C@H](Cc2ccc(O)cc2)NC(=O)[C@@H]2CCCN2C(=O)[C@H](CC(=O)O)NC(=O)[C@H](C)NC(=O)[C@H](Cc2ccccc2)NC(=O)[C@@H]2CSCCC(=O)N3CN(CN(C3)C(=O)CCSC[C@@H](C(=O)N[C@@H](CNC(=O)CCc3cn(CCOCCOCCOCCOCCOCCC(=O)N[C@@H](C)C(=O)N[C@@H](CCCCNC(=N)N)C(=O)N[C@@H](CC(=O)O)C(=O)N[C@H]4CSCCC(=O)N5CN6CN(C5)C(=O)CCSC[C@H](NC(=O)[C@H](CC(C)C)NC(=O)[C@@H]5CCCN5C(=O)[C@H](CC(N)=O)NC(=O)[C@H](C(C)C)NC(=O)[C@H](CC(C)C)NC(=O)[C@@H]5C[C@@H](O)CN5C4=O)C(=O)N[C@@H](CC(C)C)C(=O)N[C@@H](Cc4c[nH]cn4)C(=O)N4CCC[C@H]4C(=O)N[C@H](CC(=O)O)C(=O)N[C@@H](Cc4c[nH]c5ccccc45)C(=O)N[C@@H](CCCCNC(=N)N)C(=O)N[C@H](C(N)=O)CSCCC6=O)nn3)C(N)=O)NC1=O)C(=O)CCSC[C@H](NC(C)=O)C(=O)N[C@@H](CC(C)(C)C)C(=O)N1CCC[C@H]1C(=O)N[C@@H](CCC(=O)O)C(=O)N[C@H](C)C(=O)N1CCC[C@H]1C(=O)N[C@@H](Cc1ccc(O)cc1)C(=O)N2 [BCY10576]  38 fold
3. CCCC[C@@H]1NC(=O)[C@H](Cc2ccc(O)cc2)NC(=O)[C@@H]2CCCN2C(=O)[C@H](CC(=O)O)NC(=O)[C@H](C)NC(=O)[C@H](Cc2ccccc2)NC(=O)[C@@H]2CSCCC(=O)N3CN(CN(C3)C(=O)CCSC[C@@H](C(=O)N[C@@H](CNC(=O)Cn3cc(CCC(=O)NCCC(=O)N(C)CC(=O)N(C)CC(=O)N(C)CC(=O)N(C)CC(=O)N(C)CC(=O)N(C)CC(=O)N(C)CC(=O)N(C)CC(=O)N(C)CC(=O)N(C)CC(=O)N[C@@H](C)C(=O)N[C@@H](CCCCNC(=N)N)C(=O)N[C@@H](CC(=O)O)C(=O)N[C@H]4CSCCC(=O)N5CN6CN(C5)C(=O)CCSC[C@H](NC(=O)[C@H](CC(C)C)NC(=O)[C@@H]5CCCN5C(=O)[C@H](CC(N)=O)NC(=O)[C@H](C(C)C)NC(=O)[C@H](CC(C)C)NC(=O)[C@@H]5C[C@@H](O)CN5C4=O)C(=O)N[C@@H](CC(C)C)C(=O)N[C@@H](Cc4c[nH]cn4)C(=O)N4CCC[C@H]4C(=O)N[C@H](CC(=O)O)C(=O)N[C@@H](Cc4c[nH]c5ccccc45)C(=O)N[C@@H](CCCCNC(=N)N)C(=O)N[C@H](C(N)=O)CSCCC6=O)nn3)C(N)=O)NC1=O)C(=O)CCSC[C@H](NC(C)=O)C(=O)N[C@@H](CC(C)(C)C)C(=O)N1CCC[C@H]1C(=O)N[C@@H](CCC(=O)O)C(=O)N[C@H](C)C(=O)N1CCC[C@H]1C(=O)N[C@@H](Cc1ccc(O)cc1)C(=O)N2 [BCY10577]  37 fold
